Literature values, collected in patent US6767507B1, “Uncomplexed cyclodextrin compositions for odor control” (The Procter & Gamble Company, priority 1998, dated 2004).

conditions: not given

Row | Compound | solubility in water
1 | ClC=CC[N+]12CN3CN(CN(C3)C1)C2.[Cl-] [Dowicil 200, 1-(3-Chlorallyl)-3,5,7-triaza-1-azoniaadamantane chloride] | freely soluble in water

same assay, conditions: in water

Row | Compound | water solubility
2 | OCCc1ccccc1 [2-phenylethanol] | about 2%
3 | OCc1ccccc1 [benzyl alcohol] | about 4%
4 | [Na+].[O-][n+]1ccccc1[S-] [sodium pyrithione] | about 50%

Results, then the compound that gave them:

Row | water solubility | Compound
5 | about 2.67% | OCCOc1ccccc1 [2-phenoxyethanol]
6 | about 0.46% | O=[N+]([O-])C1(Br)COCOC1 [Bronidox L, 5-bromo-5-nitro-1,3-dioxane]
7 | more than 50% | CC1(C)C(=O)N(CO)C(=O)N1CO [DMDM hydantoin, 1,3-bis(hydroxymethyl)-5,5-dimethyl-2,4-imidazolidinedione]
8 | about 1.8% | [H]/N=C(\N/C(=N/[H])NCCCCCCNC(=N)NC(=N)Nc1ccc(Cl)cc1)Nc1ccc(Cl)cc1 [chlorhexidine diacetate, 1,1′-hexamethylene bis(5-(p-chlorophenyl)biguanide), reference compound]
9 | about 70% | [H]/N=C(\N/C(=N/[H])NCCCCCCNC(=N)NC(=N)Nc1ccc(Cl)cc1)Nc1ccc(Cl)cc1 [chlorhexidine digluconate, 1,1′-hexamethylene bis(5-(p-chlorophenyl)biguanide), reference compound]
10 | about 0.8% | CC(C)(O)C(Cl)(Cl)Cl [chlorobutanol, 1,1,1-Trichloro-2-methylpropan-2-ol]
